# Target: T1, HR13 (Heliothis virescens, UniProt Q6A1K1)
# T1 construct: stably expressed, tetracycline-induced, in Flp-In T-REx293/Galpha15 (HEK293) cells; no Orco mentioned
# T1 sequence (Q6A1K1 1-425): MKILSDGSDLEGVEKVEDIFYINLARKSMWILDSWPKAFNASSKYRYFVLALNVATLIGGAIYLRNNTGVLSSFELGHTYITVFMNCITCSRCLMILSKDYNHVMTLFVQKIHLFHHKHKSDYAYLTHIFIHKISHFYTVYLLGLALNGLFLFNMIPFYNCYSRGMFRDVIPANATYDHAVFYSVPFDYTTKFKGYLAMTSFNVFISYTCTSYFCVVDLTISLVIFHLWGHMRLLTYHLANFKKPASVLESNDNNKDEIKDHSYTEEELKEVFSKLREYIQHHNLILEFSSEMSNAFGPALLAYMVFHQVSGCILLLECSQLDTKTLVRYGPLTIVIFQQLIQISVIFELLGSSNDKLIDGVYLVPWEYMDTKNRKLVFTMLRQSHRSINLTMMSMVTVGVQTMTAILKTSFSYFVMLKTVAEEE
# Assay: fura-2 calcium imaging, mixture with Z11-16:Ald
# Assay type: cell-based
# Conditions: inhibitor of response to 1 nM Z11-16:Ald; no agonism at 100 nM; competitive or allosteric not resolved
structure (smiles),measurement,value
C=CC(C)(O)CCC=C(C)C (stereo not shown) [linalool],"F/F0 of mixture (1, 10, 100 nM)",linalool reduced the pheromone-induced calcium response of HR13 cells in a dose-dependent manner
